Assay results as given in ChEMBL document CHEMBL4665697, “Synthesis of the Major Mammalian Metabolites of THCV” (J Nat Prod, 2020).

How the values were obtained:
[1] = biological target: Cannabinoid receptor 2 (Homo sapiens, UniProt P34972); assay: Displacement of [3H]-CP-55,940 from recombinant human CB2R expressed in HEK293 cell membranes after 90 mins; design: species or system Cell membrane
[2] = biological target: Cannabinoid receptor 1 (Homo sapiens, UniProt P21554); assay: Displacement of [3H]-CP-55,940 from recombinant human CB1R expressed in HEK293 cell membranes after 90 mins; design: species or system Cell membrane
Chain of Cannabinoid receptor 1 (P21554 whole entry): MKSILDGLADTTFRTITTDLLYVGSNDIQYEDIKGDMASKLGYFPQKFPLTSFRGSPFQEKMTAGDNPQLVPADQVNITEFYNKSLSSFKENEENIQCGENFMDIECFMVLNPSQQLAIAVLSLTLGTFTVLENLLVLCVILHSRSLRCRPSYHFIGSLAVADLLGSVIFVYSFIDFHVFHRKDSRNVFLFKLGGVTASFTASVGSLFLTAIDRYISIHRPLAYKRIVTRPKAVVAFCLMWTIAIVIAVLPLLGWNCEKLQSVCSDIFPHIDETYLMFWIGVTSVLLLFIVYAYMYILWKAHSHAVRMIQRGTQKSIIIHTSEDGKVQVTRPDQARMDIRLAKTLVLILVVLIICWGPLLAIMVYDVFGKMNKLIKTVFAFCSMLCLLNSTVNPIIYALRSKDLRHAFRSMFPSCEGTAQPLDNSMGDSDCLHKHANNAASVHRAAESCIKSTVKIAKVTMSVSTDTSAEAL

Chain of Cannabinoid receptor 2 (P34972 whole entry): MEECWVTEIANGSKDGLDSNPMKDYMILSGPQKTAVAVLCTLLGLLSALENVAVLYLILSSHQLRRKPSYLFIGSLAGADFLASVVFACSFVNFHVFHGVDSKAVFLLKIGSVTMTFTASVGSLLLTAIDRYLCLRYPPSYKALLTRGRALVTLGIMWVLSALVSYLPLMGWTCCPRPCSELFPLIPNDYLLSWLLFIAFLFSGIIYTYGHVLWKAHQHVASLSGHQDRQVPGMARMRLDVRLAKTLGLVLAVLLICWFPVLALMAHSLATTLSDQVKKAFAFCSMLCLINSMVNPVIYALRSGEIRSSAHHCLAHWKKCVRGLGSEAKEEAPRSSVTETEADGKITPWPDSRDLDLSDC

Structure (SMILES)	IC50 [1] [µM]	Ki [1] [µM]	IC50 [2] [µM]	Ki [2] [µM]
CCCc1cc(O)c2c(c1)OC(C)(C)[C@@H]1CCC(C(=O)O)=C[C@@H]21	3.72	0.59	1.68	0.187
CCCc1cc(O)c2c(c1)OC(C)(C)[C@@H]1CCC(CO)=C[C@@H]21	0.0298	0.0047	0.0227	0.0025
CCCc1cc(O)c2c(c1)OC(C)(C)[C@@H]1C[C@@H](O)C(C)=C[C@@H]21	> 10	> 10	> 10	> 10
CCCc1cc(O)c2c(c1)OC(C)(C)[C@@H]1CCC(C)=C[C@@H]21 [TETRAHYDROCANNABIVARIN]	0.0176	0.0028	0.0131	0.0015
CCCc1cc(O)c2c(c1)OC(C)(C)[C@@H]1C[C@H](O)C(C)=C[C@@H]21	0.808	0.128	0.23	0.0256
